For the experiment, the system named is BDF1 mice, P388 leukemia ip, median survival T/C. Kind of experiment: NCI In Vivo Anticancer Drug Screen. Data for tumor model P388 Leukemia (intraperitoneal) in B6D2F1 (BDF1) mice. Conditions: endpoint: median survival time, higher = longer survival. The procedure, abridged: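 Mice carrying the transplantable tumour receive compound or vehicle. Survival is followed in each arm, and the treated measure is divided by the vehicle measure.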

Where [1] appears, read: dose: 100.0 mg/kg/injection, schedule: Q01DX009 (ip), vehicle: saline with Tween-80.
The mark [2] stands for this setting: dose: 100.0 mg/kg/injection, schedule: Q04DX003 (ip), vehicle: saline with Tween-80.
Where [3] appears, read: dose: 200.0 mg/kg/injection, schedule: Q01DX009 (ip), vehicle: saline with Tween-80.
Where [4] appears, read: dose: 200.0 mg/kg/injection, schedule: Q04DX003 (ip), vehicle: saline with Tween-80.
Setting [5] is: dose: 12.5 mg/kg/injection, schedule: Q01DX009 (ip), vehicle: saline with Tween-80.
The mark [6] stands for this setting: dose: 25.0 mg/kg/injection, schedule: Q01DX009 (ip), vehicle: saline with Tween-80.
The mark [7] stands for this setting: dose: 50.0 mg/kg/injection, schedule: Q01DX009 (ip), vehicle: saline with Tween-80.
Where [8] appears, read: dose: 50.0 mg/kg/injection, schedule: Q04DX003 (ip), vehicle: saline with Tween-80.
Where [9] appears, read: dose: 100.0 mg/kg/injection, schedule: Q04DX003 (ip), vehicle: saline.
[10] abbreviates: dose: 200.0 mg/kg/injection, schedule: Q04DX003 (ip), vehicle: saline.
The mark [11] stands for this setting: dose: 400.0 mg/kg/injection, schedule: Q04DX003 (ip), vehicle: saline.
The mark [12] stands for this setting: dose: 400.0 mg/kg/injection, schedule: Q04DX003 (ip), vehicle: saline with Tween-80.

Molecules are shown by their SMILES. Values joined by “and” are separate entries in the source; they are usually repeats but may differ in a detail not shown here. Identical values can stand only once. Toxic doses and inconclusive results are not listed. Residues, ends and D or L forms follow the SMILES beside them. *: point of attachment. Bn = c1ccc(C*)cc1

As to `Oc1c(-c2ccccc2)cc(-[n+]2c(-c3ccccc3)cc(-c3ccccc3)cc2-c2ccccc2)cc1-c1ccccc1`, the T/C reads like this: (dose: 0.38 mg/kg/injection, schedule: Q01DX009 (ip), vehicle: saline with Tween-80) 100 % of control; (dose: 0.75 mg/kg/injection, schedule: Q01DX009 (ip), vehicle: saline with Tween-80) 108 % of control; (dose: 1.5 mg/kg/injection, schedule: Q01DX009 (ip), vehicle: saline with Tween-80) 108 % of control.

On to `O=C(C[n+]1ccccc1)N/N=C/c1ccc(O)c(O)c1`, for which the T/C runs as follows: under setting [1], 100 % of control; under setting [2], 95 % of control; under setting [3], 104 % of control; under setting [4], 86 % of control.

With `COc1cc([C@@H]2c3cc4c(cc3[C@H](OC3OC5COC(c6ccccc6)OC5C(O)C3O)[C@H]3COC(=O)[C@H]23)OCO4)cc(OC)c1OC` (stereo partly drawn), the T/C reads like this: (dose: 3.1 mg/kg/injection, schedule: Q01DX010 (ip), vehicle: carboxymethylcellulose (CMC)) 180 % of control; (dose: 6.2 mg/kg/injection, schedule: Q01DX010 (ip), vehicle: carboxymethylcellulose (CMC)) 210 % of control; (dose: 12.5 mg/kg/injection, schedule: Q01DX010 (ip), vehicle: carboxymethylcellulose (CMC)) 235 % of control; (dose: 25.0 mg/kg/injection, schedule: Q01DX010 (ip), vehicle: carboxymethylcellulose (CMC)) 270 % of control; (dose: 50.0 mg/kg/injection, schedule: Q01DX010 (ip), vehicle: carboxymethylcellulose (CMC)) 300 % of control.

For `COC(=O)C(CC(C)C)NC(=O)C(N)Cc1ccc(OCc2ccccc2)cc1` (stereo not drawn) (H-Tyr(Bn)-Leu-OMe; configuration not given here), the T/C by setting is: under setting [5], 105 % of control; under setting [6], 100 % of control; under setting [7], 105 % of control and 120 % of control; under setting [8], 105 % of control; under setting [1], 105 % of control; under setting [2], 100 % of control.

Turning to `COc1ccc(OC)c(C(=O)C[n+]2ccccc2)c1`, the T/C was 91 % of control under setting [6] and 91 % of control under setting [7].

Take `O=[N+]([O-])CC(O)C(O)C(O)C(O)CO` (stereo not drawn): the T/C is 95 % of control (dose: 100.0 mg/kg/injection, schedule: Q01DX009 (ip), vehicle: saline); 104 % of control under setting [9]; 100 % of control (dose: 200.0 mg/kg/injection, schedule: Q01DX009 (ip), vehicle: saline); 100 % of control under setting [10]; 100 % of control (dose: 400.0 mg/kg/injection, schedule: Q01DX009 (ip), vehicle: saline); 104 % of control under setting [11].

Turning to `OCc1ccccc1Sc1ccccc1CO`, the T/C is 91 % of control under setting [7], 100 % of control under setting [1] and 99 % of control under setting [3].

On to `C=C(C)COP(=O)(OCC(=C)C)OCC(=C)C`, for which the T/C (dose: 50.0 mg/kg/injection, schedule: Q01DX009 (ip), vehicle: Klucel (hydroxypropylcellulose) (HPC)) was 104 % of control; the T/C (dose: 100.0 mg/kg/injection, schedule: Q01DX009 (ip), vehicle: Klucel (hydroxypropylcellulose) (HPC)) was 100 % of control; the T/C (dose: 100.0 mg/kg/injection, schedule: Q04DX003 (ip), vehicle: Klucel (hydroxypropylcellulose) (HPC)) is 104 % of control; the T/C (dose: 200.0 mg/kg/injection, schedule: Q01DX009 (ip), vehicle: Klucel (hydroxypropylcellulose) (HPC)) is 109 % of control; the T/C (dose: 200.0 mg/kg/injection, schedule: Q04DX003 (ip), vehicle: Klucel (hydroxypropylcellulose) (HPC)) was 95 % of control; the T/C (dose: 400.0 mg/kg/injection, schedule: Q04DX003 (ip), vehicle: Klucel (hydroxypropylcellulose) (HPC)) was 95 % of control.

With `CCOC(=O)C(=CN1CCCC1)C(=O)OCC`, the T/C was 100 % of control under setting [2], 100 % of control under setting [4] and 109 % of control under setting [12].

On to `COC(=O)C1C2CCC3C2C(C)(C)CCCC31C` (stereo not drawn), for which the T/C was 100 % of control (dose: 25.0 mg/kg/injection, schedule: Q04DX003 (ip), vehicle: saline with Tween-80); 95 % of control under setting [8]; 104 % of control under setting [2]; 118 % of control under setting [4].

With `COc1ccc(/C=C/C(=O)c2ccc(Cl)cc2)c(OC)c1`, the T/C was 95 % of control under setting [6]; 100 % of control under setting [7]; 109 % of control under setting [1]; 109 % of control under setting [2]; 100 % of control under setting [3]; 95 % of control under setting [4]. In addition, the T/C under setting [12] was 90 % of control.

Turning to `CCOC(=O)Oc1c(OC)cc(C(=O)O[C@@H]2C[C@@H]3CN4CCc5c([nH]c6cc(OC)ccc56)[C@H]4C[C@@H]3[C@H](C(=O)OC)[C@H]2OC)cc1OC`, the T/C under setting [6] is 100 % of control.

On to `C[N+](C)(CC(=O)Nc1ccc(Cl)c(Cl)c1)CC(=O)c1ccc(Cl)cc1`, for which the T/C by setting is: (dose: 6.25 mg/kg/injection, schedule: Q04DX003 (ip), vehicle: saline) 110 % of control; (dose: 12.5 mg/kg/injection, schedule: Q04DX003 (ip), vehicle: saline) 95 % of control; (dose: 25.0 mg/kg/injection, schedule: Q04DX003 (ip), vehicle: saline) 100 % of control.

For `CC(=O)OC1CCC2(C)C(CC(=O)C(C)C2(O)CCc2ccoc2)C1(C)C` (stereo not drawn), the T/C runs as follows: (dose: 25.0 mg/kg/injection, schedule: Q01DX009 (ip), vehicle: saline + alcohol) 91 % of control; (dose: 50.0 mg/kg/injection, schedule: Q01DX009 (ip), vehicle: saline + alcohol) 112 % of control; (dose: 100.0 mg/kg/injection, schedule: Q01DX009 (ip), vehicle: saline + alcohol) 112 % of control.

Regarding `CC(C)(C)OC(=O)NCC(=O)NNC(=O)OC(C)(C)C`, the T/C is 104 % of control under setting [9], 113 % of control under setting [10] and 104 % of control under setting [11].

For the molecule `CC(=O)Oc1cc2c(cc1OC(C)=O)C(=O)CCC=C2`, the T/C is, setting by setting: under setting [5], 114 % of control; under setting [6], 109 % of control; under setting [7], 104 % of control.

In the case of `COC(=O)C(N)CN` (stereo not drawn), the T/C (dose: 175.0 mg/kg/injection, schedule: Q01DX009 (ip), vehicle: saline with Tween-80) was 89 % of control.

For `O=C(O)CS(=O)c1ccc2c3c(cccc13)C(=O)c1ccccc1-2` (stereo not drawn), the T/C was 87 % of control (dose: 50.0 mg/kg/injection, schedule: Q01DX005 (ip), vehicle: saline with Tween-80); 94 % of control (dose: 100.0 mg/kg/injection, schedule: Q01DX005 (ip), vehicle: saline with Tween-80); 94 % of control (dose: 200.0 mg/kg/injection, schedule: Q01DX005 (ip), vehicle: saline with Tween-80).

On to `OC(CN(CCCl)CCCl)C(O)C(O)C(O)CN(CCCl)CCCl` (stereo not drawn), for which the T/C (dose: 0.13 mg/kg/injection, schedule: Q04DX003 (ip), vehicle: saline) is 150 % of control; the T/C (dose: 0.2 mg/kg/injection, schedule: Q04DX003 (ip), vehicle: saline) was 166 % of control; the T/C (dose: 0.25 mg/kg/injection, schedule: Q04DX003 (ip), vehicle: saline) was 155 % of control; the T/C (dose: 0.3 mg/kg/injection, schedule: Q04DX003 (ip), vehicle: saline) was 191 % of control; the T/C (dose: 0.44 mg/kg/injection, schedule: Q04DX003 (ip), vehicle: saline) was 212 % of control; the T/C (dose: 0.5 mg/kg/injection, schedule: Q04DX003 (ip), vehicle: saline) is 183 % of control. For the same molecule, the T/C is 241 % of control (dose: 0.67 mg/kg/injection, schedule: Q01DX009 (ip), vehicle: saline); 219 % of control (dose: 1.0 mg/kg/injection, schedule: Q01DX009 (ip), vehicle: saline); 177 % of control and 213 % of control (dose: 1.0 mg/kg/injection, schedule: Q04DX003 (ip), vehicle: saline); 213 % of control (dose: 1.5 mg/kg/injection, schedule: Q01DX009 (ip), vehicle: saline); 272 % of control and 177 % of control (dose: 1.5 mg/kg/injection, schedule: Q04DX003 (ip), vehicle: saline); 281 % of control (dose: 2.0 mg/kg/injection, schedule: Q04DX003 (ip), vehicle: saline). For the same molecule, the T/C was 245 % of control (dose: 2.25 mg/kg/injection, schedule: Q04DX003 (ip), vehicle: saline); 86 % of control (dose: 6.0 mg/kg/injection, schedule: Q04DX003 (ip), vehicle: saline); 100 % of control (dose: 26.0 micrograms/kg/injection, schedule: Q04DX003 (ip), vehicle: saline); 112 % of control (dose: 40.0 micrograms/kg/injection, schedule: Q04DX003 (ip), vehicle: saline); 120 % of control (dose: 60.0 micrograms/kg/injection, schedule: Q04DX003 (ip), vehicle: saline).

Source of the values: PubChem BioAssay AID328 (DTP/NCI, 2004).
